Read-outs that look alike come from different tables or passages of the source.
Experiments:
[1] = PPI half-life (serum concentration profile), n of 1 studies; type: in vivo, human; conditions: for half-life: human, serum, Day 1, n of 1
Excerpt: The measure of a PPIs activity can be predicted by looking at AUC above 1 micromole. The elimination rate (Kel) is the only variable that can be changed to increase the AUC for a given PPI. Half-life=0.693/Kel
These are all n of 1 studies all performed on the same subject. (Unless otherwise stated, 1.68 g NaHCO3 was used as buffering agent)

H+, K+-ATPase = biological target: T1, H+, K+-ATPase (Rattus norvegicus, UniProt P09626); conditions: cited from earlier work
T1 construct: host or cells: rats (in vivo treatment; endogenous gastric enzyme)

[2] = oral, 120 mg, IR 120 mg given alone
[3] = oral, given as OME-IR 120 mg+Tenatoprazole IR 40 mg+Cimetidine 200 mg
[4] = oral, given as OME-IR 120 mg+Tenatoprazole IR 40 mg

T1 sequence (P09626 whole entry): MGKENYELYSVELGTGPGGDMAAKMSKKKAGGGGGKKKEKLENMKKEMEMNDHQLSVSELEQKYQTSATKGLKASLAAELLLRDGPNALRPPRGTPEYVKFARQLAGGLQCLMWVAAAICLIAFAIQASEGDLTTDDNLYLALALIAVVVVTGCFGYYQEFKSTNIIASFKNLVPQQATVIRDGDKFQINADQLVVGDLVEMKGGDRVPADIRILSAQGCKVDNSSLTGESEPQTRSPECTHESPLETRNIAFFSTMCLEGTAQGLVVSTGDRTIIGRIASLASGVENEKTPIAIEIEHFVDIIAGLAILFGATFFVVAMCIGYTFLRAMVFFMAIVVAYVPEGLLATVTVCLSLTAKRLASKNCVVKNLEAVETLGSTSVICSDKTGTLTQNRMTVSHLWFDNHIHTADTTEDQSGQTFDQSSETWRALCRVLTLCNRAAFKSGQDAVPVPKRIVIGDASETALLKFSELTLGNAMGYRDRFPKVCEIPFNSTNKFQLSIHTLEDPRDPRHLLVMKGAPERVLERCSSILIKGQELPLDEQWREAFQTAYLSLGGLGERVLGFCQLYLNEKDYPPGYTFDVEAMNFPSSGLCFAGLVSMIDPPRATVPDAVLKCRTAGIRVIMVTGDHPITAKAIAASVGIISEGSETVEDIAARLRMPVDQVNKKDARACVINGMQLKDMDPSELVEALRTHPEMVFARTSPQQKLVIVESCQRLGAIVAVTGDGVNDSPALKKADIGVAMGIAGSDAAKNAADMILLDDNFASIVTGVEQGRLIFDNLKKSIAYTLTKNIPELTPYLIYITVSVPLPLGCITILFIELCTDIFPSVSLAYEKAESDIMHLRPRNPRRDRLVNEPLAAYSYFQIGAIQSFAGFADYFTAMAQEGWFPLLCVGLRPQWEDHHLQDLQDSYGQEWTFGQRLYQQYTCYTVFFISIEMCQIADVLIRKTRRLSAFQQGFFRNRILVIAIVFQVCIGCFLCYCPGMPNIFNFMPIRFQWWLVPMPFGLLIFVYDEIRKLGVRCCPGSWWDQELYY
T1 sequence (P18598 whole entry partner): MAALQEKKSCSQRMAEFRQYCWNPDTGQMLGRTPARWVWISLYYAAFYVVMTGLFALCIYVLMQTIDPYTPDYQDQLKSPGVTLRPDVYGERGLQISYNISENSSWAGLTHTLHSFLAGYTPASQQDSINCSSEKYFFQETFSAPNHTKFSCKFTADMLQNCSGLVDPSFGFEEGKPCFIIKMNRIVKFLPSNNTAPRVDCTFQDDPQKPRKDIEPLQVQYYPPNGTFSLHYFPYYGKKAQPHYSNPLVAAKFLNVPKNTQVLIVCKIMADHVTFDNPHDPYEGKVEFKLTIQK

## Cc1c(OCC(F)(F)F)ccnc1C[S+]([O-])c1nc2ccccc2[nH]1 (stereo not shown) [lansoprazole]
[1]; oral, given as OME-IR 80 mg+Lansoprazole IR 80 mg
  half-life: 3.1 h

## COc1ccc2[nH]c([S+]([O-])Cc3ncc(C)c(OC)c3C)nc2n1 (stereo not shown) [tenatoprazole, 5-methoxy-2-[[(4-methoxy-3,5-dimethyl-2-pyridyl)methyl]sulfinyl]imidazo[4,5-b]pyridine]
[1]; oral, 40 mg, 40 mg given alone
  half-life: 7 h
[1]; [2]
  half-life: 8.7 h
[1]; [3]
  half-life: 12.9 h
[1]; [4]
  half-life: 12.9 h

## COc1ccc2[nH]c([S+]([O-])Cc3ncc(C)c(OC)c3C)nc2c1 (stereo not shown) [omeprazole, 5-methoxy-2-[[(4-methoxy-3,5-dimethyl-2-pyridinyl)methyl]sulfinyl]-1H benzimidazole]
[1]; administered with cimetidine (FIG. 11)
  half-life of omeprazole: three
[1]; [2]
  half-life: 1.8 h
[1]; oral, given as OME-IR 120 mg+Cimetidine 200 mg
  half-life: 2.1 h
[1]; [3]
  half-life: 1.8 h
[1]; [4]
  half-life: 1.8 h
H+, K+-ATPase; rats pretreated with cimetidine, compared to control (no pretreatment)
  effect of omeprazole on H+, K+-ATPase activity: much reduced effect
H+, K+-ATPase; rats pretreated with secretogue carbachol
  effect of omeprazole on H+, K+-ATPase activity: increased the effect of omeprazole

## COc1ccc2nc([S@@+]([O-])Cc3ncc(C)c(OC)c3C)[nH]c2c1 [esomeprazole]
[1]; 40 mg, 40 mg given alone
  half-life: 1.4 h

From patent US20080103169A1, “COMPOSITIONS COMPRISING ACID LABILE PROTON PUMP INHIBITING AGENTS, AT LEAST ONE OTHER […] ACTIVE AGENT AND METHODS OF USING SAME” (priority 2006, published 2008)
